Reference: PMC10693528, “A high-throughput metabolomics in vitro platform for the characterization of hepatotoxicity” (Cell Biology and Toxicology, 2023)
“And” between values parts separate entries of the source, which are not always exact repeats. Equal entries are not always repeated.

Assays:
[1] = test system: HepG2 cells; assay: LC-MS/MS targeted intracellular metabolomics; format: cell-based, human; details: Suppl Fig 9; C3 (EC15 ATP), 48 h; Bezafibrate lines = Plates 1-6 in order
Method: Metabolite profiling of cells was performed directly in the same 96-well plate according to a standardized protocol described below. In order to prevent any interaction with the cell material, the automatic sampler was adjusted to pick up the sample from the supernatant at a specified depth avoiding the contact with the bottom of the plate.
After the initial quenching step (50 μL isopropanol 80%), additional 70 μL of isopropanol 80%, containing internal standards (methionine-D3, tryptophan-D5, arginine-13C6-15N4, Boc-Ala-Gly-Gly-Gly-OH, coenzyme Q1, coenzyme Q2, coenzyme Q4) were added to each well. The internal standards were used for quality control by visual inspection (signal intensity, peak shape, retention time); they were not used for normalization. Afterwards, plates were shaken for 5 min, 750 rpm at 20 °C, and placed for 30 s in the ultrasonic device. Then, the plates were centrifugated for 10 min, at 5485 g, 15 °C. Further, 2.5 μL of the extract were injected each for reversed-phase and hydrophilic interaction liquid chromatography followed by MS/MS detection (AB Sciex QTrap 6500+) using the positive and negative ionization mode. For reverse-phase high-performance liquid chromatography (RP-HPLC, Ascentis Express C18, 5 cm × 2.1 mm, 2.7 μm Supelco), gradient elution was performed with mobile phase A, water/methanol/0.1 M ammonium formate (1:1:0.02, w/w), and B, methyl-tert-butylether/2-propanol/methanol/0.1 M ammonium formate/formic acid (4:2:1:0.07:0.035, w/w) 5.9 min linear gradient: 0 min 100% A, 0.5 min 75% A, 5.9 min 10% A; followed by 0% A until 6.7 min; re-equilibration at 100% A until 7.7 min; flow rate 600 μL/min; column temperature 40 °C HILIC (ZIC-HILIC, 2.1 × 100 mm, 3.5 μm, Supelco) gradient elution was performed with mobile phase C, acetonitrile/water (99:1, v/v) with 0.2% (v) acetic acid, and D, 7 mM ammonium acetate with 0.2% (v) acetic acid (5.0 min linear gradient: 0 min 100% C, 5 min 10% C; followed by a linear gradient back to 100%C until 6.5 min; re-equilibration at 100% C until 7.5 min; flow rate 600 μL/min; column temperature 40 °C.). Two LC-MS systems with identical configuration were used for the analysis. Normalization to lyophilized reference samples (see below) was used to compensate for variation from between analytical batches. The efficiency of this normalization procedure was checked by principal component analysis (PCA), confirming that Pool samples from different analytical batches clustered together.
Reference samples derived from lyophilized untreated HepG2 cells (technical control samples) were measured in parallel throughout the entire analytical process. Data were normalized against the median of these lyophilized HepG2 cells reference samples, to give normalized ratios (performed for each sample per metabolite). This compensated for inter- and intra-instrumental variation. To correct for small differences in cell numbers within and between different treatment groups, data were also normalized to the within sample median, as described in detail by (Ramirez et al. [2018]). For intracellular metabolomic analysis, the median of each sample was calculated across all the 221 measured metabolites.
To generate metabolic profiles for the different treatments, heteroscedastic t test (Welch test) was applied to log-transformed normalized metabolite data to compare treated groups with their respective controls.
Principal component analysis (PCA) and hierarchical clustering (HCA) analyses were performed using R software environment (https://www.r-project.org/). PCA was conducted using the ropls package (Thévenot et al. [2015]) with log10-transformed input data and standard scaling. HCA was performed using the pvclust package (Suzuki et al. [2019]), (https://CRAN.R-project.org/package=pvclust). Input: log10(Ratio), clustering method: Ward D2, distance method: Manhattan, bootstrapping: 10000 times.

[2] = Cell viability (ATP, CellTiter-Glo) in parallel with metabolomics experiments; details: human, HepG2 cells, Percentage of viability (ATP) compared to the vehicle control, Bezafibrate positive control, Bezafibrate 1000 μM, 48 h, one value per experiment plate, n = 6
Method: (§1) HepG2 cells (ECACC, UK, maximum passage number 9) were maintained and grown on Dulbecco’s MEM media supplemented with 1% v/v of penicillin/streptomycin, L-glutamine (200 mM, 1% v/v), non-essential amino acids (100x, 1% v/v), and 10% FBS (PAN-Biotech, Aidenbach, Germany) in 75 cm^2 culture flasks (TPP, Switzerland). For cell passaging (~ 80% confluency) media was removed and cells were washed twice with pre-warmed calcium and magnesium free Dulbecco’s PBS (PAN-Biotech, Aidenbach, Germany). Trypsin was used for cell detachment. Then, 20 mL culture medium was added, and single-cell suspensions were obtained by passing the suspension through a Combitip (Eppendorf, Germany). A fraction of the cell suspension was then transferred to a new culture vessel. For experiments, 15,000 cells per well (passage 5-9) were seeded in 96-well flat-bottom plates (TPP, Switzerland) and incubated for 24 h for cell attachment (37 °C and 5% CO^2). Afterwards, culture media were exchanged, test substances applied, and plates incubated for 48 h (37 °C and 5% CO^2).
(§2) For each substance, one 96-well plate was set up with 6 replicates per concentration, 12 replicates for vehicle controls (yielding a final concentration of 0.5% DMSO in the well), 6 replicates for positive controls (Bezafibrate 1000 μM), and 6 replicates for blank controls (media without cells). To minimize potential evaporation, the outer rows and columns of the plate were omitted and filled with PBS instead. Reference samples prepared from lyophilized HepG2 cells were measured in parallel throughout the entire analytical process (technical replicates). […] Lyophilized HepG2 cells reference samples were used to account for variability between plates and in concentration series for linearity checks. After 48 h, the assays were stopped by washing the wells once with 100 μL 0.9% NaCl followed by snap freezing the plates on liquid nitrogen for 5 s. Plates were placed immediately on dry ice and 50 μL ice-cooled isopropanol 80% (v/v) were added to quench metabolism and precipitate proteins. Plates were stored at − 80 °C until LC/ MS analysis.

[3] = test system: HepG2 cells; assay: as above; details: Bezafibrate 1000 μM, 48 h, one value per experiment plate, n = 6
Method: as §1, §2

CC(C)(Oc1ccc(CCNC(=O)c2ccc(Cl)cc2)cc1)C(=O)O [Bezafibrate]
5-Hydroxytryptophan level vs controls [1]: 0.84 and 0.77 and 0.76 and 0.85 and 0.74 and 0.65
Carnitine level vs controls [1]: 0.72 and 0.74 and 0.84 and 0.77 and 0.80
Ceramide (d18:1.C20:0) level vs controls [1]: 0.63 and 0.66 and 0.56 and 0.62 and 0.64 and 0.59
Ceramide (d18:1.C24:1) level vs controls [1]: 0.66 and 0.91 and 0.98 and 0.80 and 0.85 and 0.68
Ceramide (d18:1.C24:2) level vs controls [1]: 0.83 and 1.08 and 1.11 and 0.89 and 0.90 and 0.91
Ceramide (d18:2.C24:1) level vs controls [1]: 0.56 and 0.62 and 0.68 and 0.89 and 0.63
Choline plasmalogen (C36:4) level vs controls [1]: 0.65 and 0.80 and 0.68 and 0.69 and 0.73 and 0.72
Choline plasmalogen (C36:5) level vs controls [1]: 0.78 and 0.90 and 0.80 and 0.83 and 0.82 and 0.79
Creatine level vs controls [1]: 0.80 and 0.82 and 0.73 and 0.78 and 0.67 and 0.66
Glycerol-3-phosphate level vs controls [1]: 0.68 and 0.43 and 0.45 and 0.54 and 0.44 and 0.39
Hexanoylcarnitine level vs controls [1]: 0.65 and 0.54 and 0.50 and 0.59 and 0.62
Ketoleucine level vs controls [1]: 0.73 and 0.72 and 0.74 and 0.77 and 1.10
Lysophosphatidylcholine (C14:0) level vs controls [1]: 2.27 and 1.82 and 2.09 and 1.97 and 1.85 and 1.87
Lysophosphatidylcholine (C16:0) level vs controls [1]: 1.86 and 1.92 and 1.98 and 2.08 and 1.93 and 2.14
Lysophosphatidylcholine (C16:1) level vs controls [1]: 1.95 and 2.13 and 2.01 and 2.17 and 1.86 and 1.72
Lysophosphatidylcholine (C20:4) level vs controls [1]: 1.22 and 1.67 and 1.47 and 1.90 and 1.86 and 1.44
Lysophosphatidylcholine (C24:0) level vs controls [1]: 1.01 and 1.18 and 1.11 and 1.20 and 1.21 and 1.29
Lysophosphatidylcholine (C24:1) level vs controls [1]: 1.10 and 1.03 and 1.13 and 1.26 and 1.12
Lysophosphatidylethanolamine (C16:0) level vs controls [1]: 2.47 and 2.37 and 2.23 and 2.12 and 2.10 and 2.19
Lysophosphatidylethanolamine (C18:0) level vs controls [1]: 2.21 and 2.07 and 1.76 and 1.77 and 2.04
Lysophosphatidylethanolamine (C18:1) level vs controls [1]: 2.45 and 2.31 and 1.97 and 2.19 and 2.11 and 2.16
N-Acetylaspartate level vs controls [1]: 1.54 and 1.49 and 1.66 and 1.48 and 1.41 and 1.25
Pantothenic acid level vs controls [1]: 0.68 and 0.77 and 0.59 and 0.72 and 0.70 and 0.76
Phosphatidylcholine (C32:0) level vs controls [1]: 0.82 and 0.70 and 0.79 and 0.88 and 0.83 and 0.76
Phosphatidylcholine (C34:1) level vs controls [1]: 0.83 and 0.75 and 0.78 and 0.82 and 0.74
Phosphatidylcholine (C34:3) level vs controls [1]: 1.02 and 1.18 and 1.17 and 1.09 and 1.15 and 1.04
Phosphatidylcholine (C36:1) level vs controls [1]: 0.86 and 0.88 and 0.73 and 0.84 and 0.79 and 0.90
Phosphatidylcholine (C36:2) level vs controls [1]: 0.66 and 0.71 and 0.62 and 0.69 and 0.65
Phosphatidylcholine (C36:3) level vs controls [1]: 0.90 and 1.03 and 0.84 and 0.96 and 0.97 and 0.89
Phosphatidylcholine (C36:4) level vs controls [1]: 1.00 and 0.93 and 0.81 and 0.98 and 0.95 and 0.94
Phosphatidylcholine (C36:5) level vs controls [1]: 0.78 and 0.81 and 0.63 and 0.76 and 0.72 and 0.75
Phosphatidylethanolamine (C36:3) level vs controls [1]: 0.90 and 0.87 and 0.84
Phosphatidylethanolamine (C38:3) level vs controls [1]: 0.72 and 0.70 and 0.64 and 0.75 and 0.68 and 0.66
Phosphatidylethanolamine (C38:5) level vs controls [1]: 0.90 and 1.00 and 0.86 and 0.98 and 0.87
Phosphatidylethanolamine (C38:6) level vs controls [1]: 0.92 and 0.91 and 0.95 and 1.01 and 0.98
Phosphatidylethanolamine (C40:7) level vs controls [1]: 0.79 and 0.81 and 0.75 and 0.88 and 0.82
Phosphocholine level vs controls [1]: 0.78 and 0.69 and 0.56 and 0.63
Propionylcarnitine level vs controls [1]: 0.66 and 0.78 and 0.40 and 0.58 and 0.54 and 0.57
S-Adenosylhomocysteine level vs controls [1]: 0.92 and 0.98 and 0.70 and 0.93 and 0.78 and 0.79
Sphingomyelin (d32:2) level vs controls [1]: 0.49 and 0.71 and 0.69 and 0.75 and 0.59 and 0.78
Sphingomyelin (d33:1) level vs controls [1]: 1.19 and 1.34 and 1.15 and 1.32 and 1.18 and 1.20
Sphingomyelin (d34:0) level vs controls [1]: 0.96 and 1.09 and 1.25 and 1.15 and 1.11
Sphingomyelin (d35:1) level vs controls [1]: 0.86 and 0.95 and 0.88 and 0.85 and 0.92
Sphingomyelin (d36:1) level vs controls [1]: 0.86 and 0.96 and 0.90 and 0.82 and 0.84
Sphingomyelin (d36:2) level vs controls [1]: 0.73 and 0.90 and 0.85 and 0.87 and 0.88
Sphingomyelin (d37:1) level vs controls [1]: 0.70 and 0.80 and 0.79 and 0.76
Sphingomyelin (d38:1) level vs controls [1]: 0.88 and 0.84 and 0.85 and 0.87 and 0.91
Sphingomyelin (d38:2) level vs controls [1]: 0.61 and 0.66 and 0.64 and 0.67 and 0.71
Sphingomyelin (d39:1) level vs controls [1]: 0.77 and 0.83 and 0.87 and 0.81 and 0.86
Sphingomyelin (d40:2) level vs controls [1]: 0.73 and 0.83 and 0.81 and 0.87 and 0.78 and 0.84
Sphingomyelin (d41:2) level vs controls [1]: 0.78 and 0.79 and 0.82 and 0.88 and 0.77 and 0.80
Sphingomyelin (d42:2) level vs controls [1]: 0.86 and 0.95 and 0.81 and 0.98 and 0.89 and 0.91
Taurine level vs controls [1]: 0.93 and 0.92 and 0.68 and 0.90 and 0.88
Triacylglycerol (C34:1.C18:3) level vs controls [1]: 1.57 and 2.06 and 2.37 and 1.58 and 1.93 and 2.00
Triacylglycerol (C34:2.C18:0) level vs controls [1]: 1.63 and 1.54 and 1.78 and 1.17 and 1.31 and 1.39
Triacylglycerol (C34:2.C18:1) level vs controls [1]: 1.40 and 1.62 and 1.81 and 1.26 and 1.79 and 1.43
Triacylglycerol (C36:4.C16:0) level vs controls [1]: 1.74 and 2.34 and 2.73 and 1.73 and 1.97 and 2.11
Triacylglycerol (C36:4.C18:0) level vs controls [1]: 1.72 and 1.82 and 2.28 and 2.15 and 2.38 and 2.26
viability at 48 h, 1000 μM [2]: 71 to 84%
Percentage of viability (ATP) compared to the vehicle control, Bezafibrate positive control [3]: 84.1 ± 2.3% and 76.3 ± 3.2% and 75.0 ± 1.5% and 71.8 ± 2.8% and 78.0 ± 0.7% and 79.3 ± 2.2%
